Test results: patent publication US5273985A, “Glycerin derivative and its pharmacological use” (Eisai Co., Ltd., priority 1988, dated 1993)

Key:
[1] = biological target: T1, Human PAF Receptor (Homo sapiens, UniProt P25105); experiment: Human PAF receptor binding assay (3H-PAF, platelets); details: 3H-PAF 0.6 to 1 nM, 37° C., read-out: PAF receptor antagonism IC50
T1 construct: The platelets were sampled from healthy males by an ordinary method; endogenous in cells; host or cells: human platelets from healthy males (intact platelet suspension)
Procedure: Human PAF Receptor Binding Assay
The platelets were sampled from healthy males by an ordinary method and suspended in a binding buffer [10 mM phosphate-buffered saline (pH 7.0) containing 0.1 w/v % of BSA and 0.9 mM of CaCl2) to form a suspension having a concentration of 10^8 /460 μl. 20 μl of a solution of the test compound in the binding buffer was placed in a polypropylene tube and then 460 μl of the platelet suspension was added thereto. The mixture was subjected to a vortex treatment and then incubated at 37° C. for 6 min. 20 μl of a solution of ^3 H-PAF in the binding buffer (final ^3 H-PAF concentration: 0.6 to 1 nM) was added thereto and the mixture was incubated for 6 min. 3 ml of a washing solution (saline containing 0.1 w/v % of BSA) cooled with ice was added thereto to terminate the reaction. The reaction mixture was filtered by suction through a glass filter (Whatman GF/C). The glass filter was dried and the radioactivity thereof was determined with a liquid scintillation counter.
The inhibition % was calculated according to the following equation and IC50 so was determined by interpolation from the figure. [formula] wherein: total binding: dpm obtained when the concentration of the medicine or PAF is 0,
non-specific binding: dpm obtained when 10^-5 M of cold PAF was added.

[2] = system: blood pressure drop induced by PAF; experiment: Action on the blood pressure drop induced by PAF; format: in vivo, F344 rats; details: Rattus norvegicus, iv, 0.05 h, i.v., three minutes after 0.5 μg/kg PAF, ratio of blood pressure rise to drop, read-out: Recovery rate
Procedure: Action on the Blood Pressure Drop Induced by […]
Cannulae were inserted into the carotid and the jugular of each of F344 rats anesthetized with Pento (50 mg/kg, i. p.). The blood pressure was determined at the carotid and 0.5 ml/kg of PAF or the test compound was given through the jugular. Three minutes after the injection of 0.5 μg/kg of PAF, the test compound was given and the antagonism thereof was evaluated.
The recovery rate shown in Table 4 is the ratio of the blood pressure rise by the test compound to the drop thereof.

[3] = system: platelet agglutination caused by PAF; experiment: Inhibition of platelet agglutination caused by human PAF (platelet-rich plasma, optical method of Born); format: cell-based; details: PAF at minimum concentration for maximum agglutination, read-out: Agglutination inhibiting activity IC50
Procedure: Effect on the Agglutination Caused by Human PAF
One part by volume of a 3.8% sodium citrate solution was added to 9 parts by volume of blood sampled from the forearm of a healthy adult to whom had been administered no medicine for at least two weeks. A platelet-rich plasma (PRP) was prepared by centrifugation. The inhibition of the platelet agglutination was determined by an optical method of Born et al. with a Hematolaser II® (a platelet agglutination meter of Niko Bioscience Co.). PAF was dissolved in Tyrode solution [Ca^++ (+)] to form a solution having the minimum concentration for causing the maximum agglutination. The test compound was dissolved in a physiological saline.
The agglutination inhibiting activity of the test compound was determined from the rate of inhibition of the maximum light transmittance (maximum agglutination rate) caused by PAF in control PRP. IC50 was determined from the inhibition curve.
The numeral in the column of the Test compound in Table 1 refers to the Example number of the compound.

[4] = Determination of stability in aqueous solution; format: physicochemical; details: pH 7.4, 37° C., 0.5M sodium phosphate; for half-life: read-out: Half-value period of disappearance due to hydrolysis (t1/2) (converted)
Procedure: Determination of Stability in Aqueous Solution
These compounds were unstable in a neutral or alkaline aqueous solution mainly due to the hydrolysis reaction of the N-acetyl or N-benzoyl group. The relationships between the pH and decomposition rate of several compounds were examined to find that they have the same pattern. The decomposition rate constant under conditions (pH 7.4, 37° C.) where they were relatively easily decomposed was determined and the stabilities of the compounds were compared with one another.
9 parts by volume of a buffer solution (0.5M sodium phosphate, pH 7.4) was added to 1 part by volume of an aqueous sample solution (1 mg/ml) and the mixture was kept at 37° C. The sampling was conducted at appropriate time intervals and the residual rate of an unreacted compound was determined by reversed phase high-performance liquid chromatography. Since the decomposition rate of most of the compounds can be approximately represented by the first-order decomposition rate equation, the decomposition rate constant was determined by the least squares method.

T1 sequence (P25105 whole entry): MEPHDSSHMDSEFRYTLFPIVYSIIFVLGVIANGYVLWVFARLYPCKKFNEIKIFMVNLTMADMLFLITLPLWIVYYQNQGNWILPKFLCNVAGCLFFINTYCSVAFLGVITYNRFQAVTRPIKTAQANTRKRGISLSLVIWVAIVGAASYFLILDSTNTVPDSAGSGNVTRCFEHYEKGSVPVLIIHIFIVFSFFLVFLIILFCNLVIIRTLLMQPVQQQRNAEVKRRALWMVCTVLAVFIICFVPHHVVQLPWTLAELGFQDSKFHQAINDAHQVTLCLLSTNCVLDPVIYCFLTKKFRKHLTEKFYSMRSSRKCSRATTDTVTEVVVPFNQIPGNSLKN

IC50 [1] | IC50 [3] | half-life [4] | Half-value period of disappearance due to hydrolysis (t1/2) [4] | Compound | inhibition in vivo at 0.01 mg/kg [2] | inhibition in vivo at 0.1 mg/kg [2] | inhibition in vivo at 1 mg/kg [2]
140 nM | 110 nM |  |  | CC[n+]1ccccc1CN(C(=O)OCC(COC(=O)NCCc1ccc(S(N)(=O)=O)cc1)OC)C(=O)c1ccccc1OC (stereo not drawn) [Example 8, 1-Ethyl-2-[N-(2-methoxy)benzoyl-N-{2-methoxy-3-(2-(4-sulfamoylphenyl)ethylcarbamoyloxy)propyloxy}carbonyl]aminomethylpyridinium iodide] | 70.1% | 96.7% | 
 | 31 nM |  |  | CC[n+]1ccccc1CN(C(=O)OCC(COC(=O)NCc1ccc(S(=O)(=O)NCC2CCCCC2)cc1)OC)C(=O)c1ccccc1OC (stereo not drawn) [Example 12, 1-Ethyl-2-[N-{3(4-cyclohexylmethylsulfamoyl)benzylcarbamoyloxy-2-methoxypromyloxy}carbonyl-N-(2-methoxy)benzoyl]aminomethylpyridinium chloride] |  |  | 
 | 380 nM |  |  | CC[n+]1ccccc1CN(C(C)=O)C(=O)OCC(COC(=O)Nc1cc(OC)c(OC)c(OC)c1)OC (stereo not drawn) [Example 1, 1-Ethyl-2-[N-acetyl-N-{2-methoxy-3-(3,4,5-trimethoxy)phenylcarbamoyloxypropoxy}carbonyl]aminomethylpyridinium iodide] |  |  | 21.7%
1.9 nM | 210 nM |  |  | CC[n+]1ccccc1CN(C(=O)OCC(COC(=O)NCCCCCCCCCCNC(=O)N(C)C)OC)C(=O)c1ccccc1OC (stereo not drawn) [Example 5, 1-Ethyl-2-[N-{3-(10-N,N-dimethylcarbamylamino)decylcarbamoyloxy-2-methoxypropyloxy}carbonyl-N-(2-methoxy)benzoyl]aminomethylpyridinium chloride] |  |  | 
8.9 nM | 62 nM |  |  | CC[n+]1ccccc1CN(C(=O)OCC(COC(=O)Nc1ccc2c(c1)Cc1ccccc1-2)OC)C(=O)c1ccccc1OC (stereo not drawn) [Example 2, 1-Ethyl-2-[N-{3-(2-fluoreneamino)carbonyloxy-2-methoxypropyloxy}carbonyl-N-(2-methoxy)benzoyl]aminomethylpyridinium chloride] | 79.2% | 97.4% | 
 | 2600 nM |  |  | CCOC(=O)C1CCC(CNC(=O)OCC(COC(=O)N(Cc2cccc[n+]2CC)C(=O)c2ccccc2OC)OC)CC1 (stereo not drawn) [Example 7, 1-Ethyl-2-[N-{3-(4-ethoxycarbonyl)cyclohexylmethyl-carbamoyloxy-2-methoxy}propyloxycarbonyl-N-(2-methoxy)benzoyl]aminomethylpyridinium iodide] |  |  | 
25 nM | 86 nM |  |  | CCCCCCCCCCCCCCCCCC(=O)N1CCN(C(=O)OCC(COC(=O)N(Cc2cccc[n+]2CC)C(=O)c2ccccc2OC)OC)CC1 (stereo not drawn) [Example 11, 1-Ethyl-2-[N-(2-methoxy)benzoyl-N-(2-methoxy-3-(4-stearoylpiperazinocarbonyl)oxypropyloxy}carbonyl]aminomethylpyridinium iodide] |  |  | 
 | 700 nM | 361 h |  | CC[n+]1ccccc1CN1C(=O)CN(CC(COCc2cc(OC)c(OC)c(OC)c2)OC)C1=O (stereo not drawn) [Example 23] |  |  | 
16 nM | 300 nM |  |  | CCCCCOCCCCCOCCCCCNC(=O)OCC(COC(=O)N(Cc1cccc[n+]1CC)C(=O)c1ccccc1OC)OC (stereo not drawn) [Example 10, 1-Ethyl-2-[N-{3-(6,12-dioxaheptadecyl)carbamoyloxy-2-methoxypropyloxy}carbonyl-N-(2-methoxy)benzoyl]aminomethylpyridinium iodide] | 42.5% | 59.6% | 
0.19 nM | 44 nM | 26.1 h |  | CCCCCCCCCCCCCCCCCCNC(=O)OCCCNC(=O)OCC(COC(=O)N(Cc1cccc[n+]1CC)C(=O)c1ccccc1OC)OC (stereo not drawn) [Example 14, 1-Ethyl-2-[N-(2-methoxy)benzoyl-N-{2-methoxy-3-(3-octadecylcarbamoyloxy)propylcarbamoyloxy}propoxycarbonyl]aminomethylpyridinium chloride] | 96.8% |  | 
300 nM | 310 nM |  |  | CC[n+]1ccccc1CN(C(=O)OCC(COC(=O)NCC1CCCO1)OC)C(=O)c1ccccc1OC (stereo not drawn) [Example 3, 1-Ethyl-2-[N-(2-methoxy)benzoyl-N-{2-methoxy-3-(2-tetrahydrofuranyl)methyl}carbamoyloxypropoxycarbonyl]aminomethylpyridinium chloride] |  |  | 
2.2 nM | 25 nM |  |  | CC[n+]1ccccc1CN(C(=O)OCC(COCc1ccc(-c2ccccc2)cc1)OC)C(=O)c1ccccc1OC (stereo not drawn) [Example 19, 1-ethyl-2-(((N-((3-(4-biphenylmethyloxy-2-methoxypropyloxy))carbonyl-N-(2-methoxy)benzoyl)))aminomethylpyridinium chloride] |  |  | 74.9%
3500 nM | 340 nM |  |  | CC[n+]1ccccc1CN(C(C)=O)C(=O)OCC(COc1cc(OC)c(OC)c(OC)c1)OC (stereo not drawn) [Example 17, 1-ethyl-2-(((N-acetyl-N-((2-methoxy-3-(3,4,5-trimethoxy)phenoxypropyloxy))carbonyl))) aminomethyl pyridium iodide] |  |  | 97.5%
3.5 nM | 140 nM |  |  | CCCCCCCCCCCCCCCCCCOCCCNC(=O)OCC(COC(=O)N(Cc1cccc[n+]1CC)C(=O)c1ccccc1OC)OC (stereo not drawn) [Example 4, 1-Ethyl-2-[N-(2-methoxy)benzoyl-N-{2-methoxy-3-(3-octadecyloxy)propylcarbamoyloxy}propoxycarbonyl]-aminomethylpyridinium chloride] |  |  | 
 |  |  | infinite | CC[n+]1ccccc1CN(C(=O)OCC(COCc1cc(OC)c(OC)c(OC)c1)OC)C(=O)N(C)C (stereo not drawn) [Example 22, 1-ethyl-2-(((N-(N,N-dimethyl)carbamyl-N-((2-methoxy-3-(3,4,5-trimethoxy)benzyloxypropyloxy))carbonyl))) aminomethylpyridinium iodide] |  |  | 
9.1 nM | 250 nM |  |  | CC[n+]1ccccc1CN(C(=O)OCC(COCc1cc(OC)c(OCC2CCCCC2)c(OC)c1)OC)C(=O)c1ccccc1OC (stereo not drawn) [Example 20, 1-ethyl-2-(((N-((3-(4-cyclohexylmethoxy-3,5-dimethoxy)benzyloxy-2-methoxy))propyloxycarbonyl-N-(2-methoxy)benzoyl))) aminomethylpyridinium chloride] |  |  | 91.1%
3500 nM | 380 nM |  |  | CC[n+]1ccccc1CN(C(C)=O)C(=O)OCC(COCCc1cc(OC)c(OC)c(OC)c1)OC (stereo not drawn) [Example 16] |  |  | 67.8%
790 nM | 260 nM |  |  | CC[n+]1ccccc1CN(C(=O)OCC(COC(=O)NCCCC(=O)N1CCOCC1)OC)C(=O)c1ccccc1OC (stereo not drawn) [Example 9, 1-Ethyl-2-[N-(2-methoxy)benzoyl-N-{3-(3-morpholinocarbonylpropan-1-yl)carbamoyloxy-2-methoxypropyloxy}carbonyl]aminomethylpyridinium chloride] |  |  | 
